Conditions: compared with the 2-{4′-[(3aR,6aR)-5-methylhexahydropyrrolo[3,4-b]pyrrol-1(2H)-yl]-1,1′-biphenyl-4-yl}pyridazin-3(2H)-one compound

## CN1C[C@H]2CCN(c3ccc(-c4ccc(-n5ncccc5=O)cc4)cc3)[C@H]2C1.O.O=C(O)C(O)C(O)C(=O)O [L-tartrate monohydrate Form A salt, 2-{4′-[(3aR,6aR)-5-Methylhexahydropyrrolo[3,4-b]pyrrol-1(2H)-yl]-1,1′-biphenyl-4-yl}pyridazin-3(2H)-one L-tartrate monohydrate Form A]
  relative oxidative stability: better relative oxidative stability

From patent US8399468B2, “Octahydro-pyrrolo[3,4-B]pyrrole derivatives” (Abbott Laboratories, priority 2006, dated 2013)
